Values joined by “and” are separate entries in the source; they are usually repeats but may differ in a detail not shown here. Equal entries are not always repeated. Where two headings read alike, the source gives them in different places.
Legend:
[1] = tested on: IL-2 receptors of human mononuclear cells; assay: Induction of IL-2 receptors of human mononuclear cells (proliferation with recombinant IL-2, 3H thymidine uptake); format: cell-based
Description: Human MNC were brought to a concentration of 10^6 cells/ml. RPMI+10% FCS. Aliquots of 0.2 ml. were placed in duplicate wells of microdishes and plates were incubated at 37° C. for 24 hrs. […] Plates were further incubated for 48 hrs and labeled with ^3H thymidine 24 hrs before harvesting. The proliferation was measured by ^3HT uptake as described by Gillis et al, J. Immunol. […] The results are expressed in counts per minute.

mouse macrophages = assay: Survival of mouse macrophage monolayer incubated with complex
Description: All cultures were then infected with 10^4 PFU/plate. After 72 h incubation the supernatants were collected and the virus was titrated against Vera cells.

[2] = tested on: Ha-Ras transformed NIH-3T3 cells; assay: Colony growth of Ha-Ras transformed NIH-3T3 cells; format: cell-based
Description: 5×10^2 cells were plated per 60 mm dish and incubated with different concentrations (0.005-5 μg/ml) of the complex in PBS. A week later, the cells were stained with Gimsa and clones were counted. Similar experiments were conducted using V-mos transformed NIH-3T3 cells, and also using Ph2TeCl2 and Ph3TeCl, with both types of transformed cells.

IL-2 = conditions: 10^7 viable cells/ml
Description: (§1) Spleens were removed from 15, male Balb-c mice 6 to 8 weeks of age. The spleen cells were pushed through stainless steel 60 mesh (U.S. Standard) nets resting in 5 mm Petri dishes containing PBS in order to separate the cells. The cells were then collected into centrifuge tubes and spun at 1000 rpm for 10 minutes. The supernatant was discarded and cells were treated with 5 ml of hypotonic buffer (0.15M NH4Cl; 0.01M KHCO3 dissolved in double distilled water, pH 7.2) for exactly two minutes. Thereafter, PBS was added to the cells and the test tubes were centrifuged for 10 minutes at 1000 rpm. The cells were rinsed twice and counted in a hemocytometer using trypan blue to test for viability. The cells were brought to a concentration of 10^7viable cells/ml.

[3] = tested on: colony stimulating factor (CSF)
Description: as §1

interleukin-2 (IL-2) = conditions: single animals
Description: The test animals were Balb-c, male, mice, 6 to 8 weeks of age. […] The animals received the following injections:
Each of groups a, b, c and d consisted of 21 animals. The animals were sacrificed daily from 24 h to 7 days after injection. On each day, spleen cells from three of the animals from each control group were pooled together and processed by passing the spleen cells through a 60 mesh stainless steel net in a 5 mm Petri dish containing PBS in order to separate the cells. The cells were collected and centrifuged at 1000 rpm for 10 minutes. The supernatant was discarded and the cells were treated for two minutes with 5 ml of hypotonic buffer (0.15M NH4 Cl, 0.01M KHCO3 dissolved in double distilled water, pH 7.2) to kill the erythrocytes. Thereafter, PBS was added to the cells and the cells were centrifuged for 10 minutes at 1000 rpm. The cells were washed twice with PBS and counted in a hemocytometer using trypan blue to test for viability. The cells were brought to a concentration of 10^7 cells/ml using enriched RPMI containing 10% fetal calf serum (Ser Lab, Sussex, England); 5×10^−5M 2-mercaptoethanol and 3% of d-glutamine (Bio Lab Israel); stock solution 2 mM×1000 nonessential amino acids (Bio Lab, Israel); stock solution×100 and sodium pyruvate (Bio Lab, Israel) stock solution 1 mM×100. An additional three animals from each of the experimental groups were sacrificed and each of the spleens was processed separately using the same procedure.
The cell mixture was divided into two groups:
Supernatants were collected, centrifuged at 1,600 rpm for 10 minutes and stored at 4° C. until used. […] These supernatants were assayed for CSF activity. Prior to incubation of the cells, samples were removed from culture plates and smears of the cultures were made by cytocentrifugation. Slides were stained with May-Grunwald-Giemsa (1:10) solution and evaluated morphologically. A radioactive thymidine assay was used to determine IL-2 activity. Assay for IL-2 Activity • 1. Supernatants were tested for IL-2 activity by the proliferation of the IL-2 dependent cell line CTLD. The IL-2 assay is based on the growth dependence of these cultured T-cell lines on IL-2. T cells harvested from IL-2 dependent culture, washed and placed back in culture in the absence of IL-2 invariably die within 24 hr. By using tritiated thymidine incorporation (^3H-TdR) as an index of cultured T-cell replication, the IL-2 microassay provides a highly reproducible and quantitative indication of the amount of IL-2 activity in the supernatant prepared hereinabove. • 2. To assay a condition medium for IL-2 activity, a sample containing 5 x 10^4 CTLD cells, 10% fetal calf serum and 50% of supernatant in question, all were suspended in a final volume of 1 ml RPMI. Aliquots of 0.2 ml from each sample were placed in four replicate wells of 96 microwell tissue culture plates (NUNC). Conditioned medium was obtained from cultures of Charles River rat spleen cells stimulated with Con A that contained a known amount of IL-2 as a reference in all assays. • 3. The microwells were incubated for 24 hr at 37° C. after which 1 microcurie/well of ^3H-methylthymidine was added. Cells were then further incubated overnight, harvested with a cell harvester, and counted in a beta scintillator.

[4] = 5 pg (as starting material of Preparation 1)
[5] = 50 pg (as starting material of Preparation 1)
[6] = 500 pg (as starting material of Preparation 1)
[7] = 5 ng (as starting material of Preparation 1)
[8] = 50 ng (as starting material of Preparation 1)
[9] = 500 ng (as starting material of Preparation 1)
[10] = 5 μg (as starting material of Preparation 1)
[11] = 50 μg (as starting material of Preparation 1)

Cl[Te]1(Cl)(Cl)OCCO1.N [Example 1, equimolar complex of TeO2 and ethylene glycol, NH4Cl salt]
proliferation, 3HT uptake ([1]; Test A, 1 μg/ml, listed as Ex. 1): 28625 counts per minute and 27593 counts per minute
proliferation, 3HT uptake ([1]; Test A, 1 × 10^−3 μg/ml, listed as Ex. 1): 3652 counts per minute and 5055 counts per minute
proliferation, 3HT uptake ([1]; Test A, 1 × 10^−4 μg/ml, listed as Ex. 1): 3558 counts per minute and 4047 counts per minute
proliferation, 3HT uptake ([1]; Test A, 1 × 10^−5 μg/ml, listed as Ex. 1): 2474 counts per minute and 4063 counts per minute
proliferation, 3HT uptake ([1]; Test A, 5 × 10^−1 μg/ml, listed as Ex. 1): 120755 counts per minute and 105943 counts per minute
proliferation, 3HT uptake ([1]; Test A, 7 × 10^−1 μg/ml, listed as Ex. 1): 164538 counts per minute and 115195 counts per minute
proliferation, 3HT uptake ([1]; Test B, 1 μg/ml): 23488 counts per minute
proliferation, 3HT uptake ([1]; Test B, 1 × 10^−2 μg/ml): 6057 counts per minute
proliferation, 3HT uptake ([1]; Test B, 1 × 10^−3 μg/ml): 5865 counts per minute
proliferation, 3HT uptake ([1]; Test B, 1 × 10^−4 μg/ml): 4960 counts per minute
proliferation, 3HT uptake ([1]; Test B, 1 × 10^−5 μg/ml): 7155 counts per minute
proliferation, 3HT uptake ([1]; Test B, 5 × 10^−1 μg/ml): 66910 counts per minute
proliferation, 3HT uptake ([1]; Test B, 5 × 10^−2 μg/ml): 5390 counts per minute
proliferation, 3HT uptake ([1]; Test B, 7 × 10^−1 μg/ml): 17620 counts per minute
state of macrophages after 24 h incubation (mouse macrophages; 1 μg and 0.1 μg (others)): remained unaffected
state of macrophages after 24 h incubation (mouse macrophages; 5 μg): died
number of colonies / growth compared with control ([2]; 0.005-5 μg/ml in PBS, one week, clones counted): major reduction in the number of colonies
concentration giving the maximum effect (inhibition) ([2]; 0.005-5 μg/ml tested): 0.05 µg/mL
IL-2 (IL-2; [4]): 12,000 cpm
IL-2 (IL-2; [5]): 38,000 cpm
IL-2 (IL-2; [6]): 30,000 cpm
IL-2 (IL-2; [7]): 15,000 cpm
IL-2 (IL-2; [8]): 6,000 cpm
IL-2 (IL-2; [9]): 5,000 cpm
IL-2 (IL-2; [10]): 5,000 cpm
IL-2 (IL-2; [11]): 5,000 cpm
CSF [3, 4]: 140 colonies/dish
CSF [3, 5]: 260 colonies/dish
CSF [3, 6]: 175 colonies/dish
CSF [3, 7]: 120 colonies/dish
CSF [3, 8]: 75 colonies/dish
CSF [3, 9]: 25 colonies/dish
CSF [3, 10]: 5 colonies/dish
CSF [3, 11]: 2 colonies/dish
IL-2 activity (interleukin-2 (IL-2); 1 μg IP in 0.2 ml DMSO/PBS, day 1): 25.919 CPM and 34.326 CPM and 16.718 CPM
IL-2 activity (interleukin-2 (IL-2); 1 μg IP in 0.2 ml DMSO/PBS, day 2): 21.398 CPM and 22.050 CPM and 9.338 CPM
IL-2 activity (interleukin-2 (IL-2); 1 μg IP in 0.2 ml DMSO/PBS, day 4): 31.999 CPM and 14.226 CPM and 17.228 CPM
IL-2 activity (interleukin-2 (IL-2); 1 μg IP in 0.2 ml DMSO/PBS, day 6): 41.261 CPM and 80.314 CPM and 42.485 CPM
IL-2 activity (interleukin-2 (IL-2); 1 μg IP in 0.2 ml DMSO/PBS, day 7): 66.854 CPM and 58.094 CPM and 51.268 CPM
IL-2 activity (interleukin-2 (IL-2); 10 μg IP in 0.2 ml DMSO/PBS, day 1): 24.335 CPM and 21.193 CPM and 25.381 CPM
IL-2 activity (interleukin-2 (IL-2); 10 μg IP in 0.2 ml DMSO/PBS, day 2): 31.901 CPM and 36.390 CPM and 22.066 CPM
IL-2 activity (interleukin-2 (IL-2); 10 μg IP in 0.2 ml DMSO/PBS, day 3): 20.316 CPM and 18.288 CPM and 12.126 CPM
